Measurements reported in US20230045421A1 (priority 2018, published 2023).
Like-named read-outs stand apart in the source and are kept apart here.

Tested on: HBV rcDNA
Experiment: HepDE19 assay with bDNA quantitation of HBV rcDNA
Type: cell-based, hepatitis B virus
Outline: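 Compounds, top concentration 25 μM in 8-point duplicate series, were applied to Tet-free HepDE19 cultures for 7 days. Branched-DNA quantitation of HBV rcDNA against untreated wells gave EC50 and EC90 by 4-parameter fit. Viability (CC50) came from ATP luminescence on parallel plates incubated 4 days.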

[1] = Hepatitis B virus, HepDE19, HepDE19 assay, inhibition of formation of rcDNA; read-out: DE-19bDNA EC50
[2] = HepDE19 assay, inhibition of formation of rcDNA; read-out: DE-19bDNA EC50
[3] = HepDE19 assay, inhibition of formation of relaxed circular DNA (rcDNA), bDNA quantitation; read-out: DE-19bDNA EC50

Cc1cc(NC(=O)N(C)Cc2c[nH]c(=O)c3ccccc23)ccc1F [Compound 5, 3-(4-Fluoro-3-methylphenyl)-1-methyl-1-((1-oxo-1,2-dihydroisoquinolin-4-yl)methyl)urea]
EC50 [1]: 490 nM

CCN(C(=O)Nc1ccc(F)c(Cl)c1)C(c1c[nH]c(=O)c2ccccc12)C(F)(F)F (single isomer, unassigned) [Compound 76, 3-(3-Chloro-4-fluorophenyl)-1-ethyl-1-(2,2,2-trifluoro-1-(1-oxo-1,2-dihydroisoquinolin-4-yl)ethyl)urea]
EC50 [2]: 1400 nM

CC(c1c[nH]c(=O)c2ccccc12)N(CC1CCCCC1)C(=O)Nc1ccc(F)c(Cl)c1 (single isomer, unassigned) [Compound 195, 3-(3-Chloro-4-fluorophenyl)-1-(cyclohexylmethyl)-1-(1-(1-oxo-1,2-dihydroisoquinolin-4-yl)ethyl)urea]
EC50 [2]: 30 nM

COCCCN(C(=O)Nc1ccc(F)c(Cl)c1)C(C)c1c[nH]c(=O)c2ccccc12 (stereo not shown) [Compound 80]
EC50 [2]: 30 nM

CC(c1c[nH]c(=O)c2ccccc12)N(CCS(C)(=O)=O)C(=O)Nc1ccc(F)c(Cl)c1 (single isomer, unassigned) [Compound 107, 3-(3-Chloro-4-fluorophenyl)-1-(2-(methylsulfonyl)ethyl)-1-(1-(1-oxo-1,2-dihydroisoquinolin-4-yl)ethyl)urea]
EC50 [2]: 17000 nM

CCCCN(C(=O)Nc1ccc(F)c(Cl)c1)C(C)c1c[nH]c(=O)c2ccccc12 (single isomer, unassigned) [Compound 84, 1-Butyl-3-(3-chloro-4-fluorophenyl)-1-(1-(1-oxo-1,2-dihydroisoquinolin-4-yl)ethyl)urea]
EC50 (read-out: DE-19bDNA EC50; HepDE19 assay, inhibition of formation of rcDNA): 10 nM

CC(c1c[nH]c(=O)c2cc(F)c(F)cc12)N(C)C(=O)Nc1ccc(F)c(F)c1 (single isomer, unassigned) [Compound 409, 1-(1-(6,7-Difluoro-1-oxo-1,2-dihydroisoquinolin-4-yl)ethyl)-3-(3,4-difluorophenyl)-1-methylurea]
EC50 [3]: 13 nM

CC(c1c[nH]c(=O)c2cc(F)ccc12)N(CCS(N)(=O)=O)C(=O)Nc1ccc(F)c(Cl)c1 (single isomer, unassigned) [Compound 384, 2-(3-(3-Chloro-4-fluorophenyl)-1-(1-(7-fluoro-1-oxo-1,2-dihydroisoquinolin-4-yl)ethyl)ureido) ethane-1-sulfonamide]
EC50 [3]: 10 nM

CC(c1c[nH]c(=O)c2c(F)c(F)ccc12)N(C)C(=O)Nc1ccc(F)c(F)c1 (single isomer, unassigned) [Compound 435, 1-(1-(7,8-Difluoro-1-oxo-1,2-dihydroisoquinolin-4-yl)ethyl)-3-(3,4-difluorophenyl)-1-methylurea]
EC50 [3]: 240 nM

C[C@H](c1c[nH]c(=O)c2ccccc12)N(C)C(=O)Nc1ccc(F)c(F)c1 [Compound 92, (R)-3-(3,4-Difluorophenyl)-1-methyl-1-(1-(1-oxo-1,2-dihydroisoquinolin-4-yl)ethyl)urea]
EC50 [1]: 230 nM

CC(c1cn(C)c(=O)c2c(F)cccc12)N(C)C(=O)Nc1ccc(F)c(Cl)c1 (single isomer, unassigned) [Compound 358, 3-(3-Chloro-4-fluorophenyl)-1-(1-(8-fluoro-2-methyl-1-oxo-1,2-dihydroisoquinolin-4-yl)ethyl)-1-methylurea]
EC50 [3]: 5900 nM

COc1ccc2c(=O)[nH]cc(C(C)N(C)C(=O)Nc3ccc(F)c(Cl)c3)c2c1 (single isomer, unassigned) [Compound 179, 3-(3-Chloro-4-fluorophenyl)-1-(1-(6-methoxy-1-oxo-1,2-dihydroisoquinolin-4-yl)ethyl)-1-methylurea]
EC50 [2]: 7300 nM

CC(C)CN(C(=O)Nc1ccc(F)c(Cl)c1)C(C)c1c[nH]c(=O)c2c(F)c(F)ccc12 (single isomer, unassigned) [Compound 339, 3-(3-Chloro-4-fluorophenyl)-1-(1-(7,8-difluoro-1-oxo-1,2-dihydroisoquinolin-4-yl)ethyl)-1-isobutylurea]
EC50 [3]: 5 nM

CC(c1c[nH]c(=O)c2cc(F)c(F)cc12)N(C)C(=O)NCc1ccc(F)c(F)c1 (single isomer, unassigned) [Compound 477, 1-(1-(6,7-Difluoro-1-oxo-1,2-dihydroisoquinolin-4-yl)ethyl)-3-(3,4-difluorobenzyl)-1-methylurea]
EC50 [3]: 10000 nM

CC(C)CN(C(=O)Nc1ccc(F)cc1)C(C)c1c[nH]c(=O)c2c(F)cc(F)cc12 (single isomer, unassigned) [Compound 376, 1-(1-(6,8-Difluoro-1-oxo-1,2-dihydroisoquinolin-4-yl)ethyl)-3-(4-fluorophenyl)-1-isobutylurea]
EC50 [3]: 7 nM

CC(c1c[nH]c(=O)c2c(F)cc(F)cc12)N(CCCO)C(=O)Nc1ccc(F)c(Cl)c1 (stereo not shown) [Compound 373, 3-(3-Chloro-4-fluorophenyl)-1-(1-(6,8-difluoro-1-oxo-1,2-dihydroisoquinolin-4-yl)ethyl)-1-(3-hydroxypropyl)urea]
EC50 (Hepatitis B virus, HepDE19, HepDE19 assay, inhibition of formation of relaxed circular DNA (rcDNA), bDNA quantitation; read-out: DE-19bDNA EC50): 2600 nM

CCN(C(=O)Nc1ccc(F)c(Cl)c1)C(C)c1c[nH]c(=O)c2cnccc12 (single isomer, unassigned) [Compound 152, 3-(3-Chloro-4-fluorophenyl)-1-ethyl-1-(1-(1-oxo-1,2-dihydro-2,7-naphthyridin-4-yl)ethyl)urea]
EC50 [2]: 150 nM

COc1cccc2c(=O)[nH]cc(C(C)N(C)C(=O)Nc3ccc(F)c(Cl)c3)c12 (single isomer, unassigned) [Compound 265, 3-(3-chloro-4-fluorophenyl)-1-(1-(5-methoxy-1-oxo-1,2-dihydroisoquinolin-4-yl)ethyl)-1-methylurea]
EC50 [1]: 1500 nM

CNC(=O)c1ncc(C(C)N(C)C(=O)Nc2ccc(F)c(Cl)c2)c2ccccc12 (single isomer, unassigned) [Compound 317, 4-(1-(3-(3-Chloro-4-fluorophenyl)-1-methylureido)ethyl)-N-methylisoquinoline-1-carboxamide]
EC50 [3]: 77 nM

CCN(Cc1cncc2ccccc12)C(=O)Nc1ccc(F)c(Cl)c1 [Compound 16, 3-(3-Chloro-4-fluorophenyl)-1-ethyl-1-(isoquinolin-4-ylmethyl)urea]
EC50 [1]: 1700 nM

COc1ncc(C(C)N(C(=O)Nc2ccc(F)c(Cl)c2)C2CC2)c2ccccc12 (single isomer, unassigned) [Compound 57, 3-(3-Chloro-4-fluorophenyl)-1-cyclopropyl-1-(1-(1-methoxyisoquinolin-4-yl)ethyl)urea]
EC50 [2]: 240 nM

COCCN(C(=O)Nc1ccc(F)c(Cl)c1)C(C)c1cnc(OC)c2ccccc12 (single isomer, unassigned) [Compound 73, 3-(3-Chloro-4-fluorophenyl)-1-(2-methoxyethyl)-1-(1-(1-methoxyisoquinolin-4-yl)ethyl)urea]
EC50 [2]: 780 nM

CCN(C(=O)Nc1ccc(F)c(F)c1)C(C)c1c[nH]c(=O)c2cc(F)c(F)cc12 (single isomer, unassigned) [Compound 422, 1-(1-(6,7-Difluoro-1-oxo-1,2-dihydroisoquinolin-4-yl)ethyl)-3-(3,4-difluorophenyl)-1-ethylurea]
EC50 [3]: 2800 nM

CC(NC(=O)Nc1ccc(F)c(Cl)c1)c1c[nH]c(=O)c2ccccc12 (single isomer, unassigned) [Compound 11, 1-(3-Chloro-4-fluorophenyl)-3-(1-(1-oxo-1,2-dihydroisoquinolin-4-yl)ethyl)urea]
EC50 [2]: 4700 nM

COc1ncc(C(C)N(C)C(=O)Nc2ccc(F)c(Cl)c2)c2nccnc12 (racemic) [Compound 137, 3-(3-chloro-4-fluorophenyl)-1-(1-(5-methoxypyrido[3,4-b]pyrazin-8-yl)ethyl)-1-methylurea]
EC50 [1]: 6100 nM

CC(c1c[nH]c(=O)c2cc(F)c(F)cc12)N(C)C(=O)Nc1cccc(F)c1 (single isomer, unassigned) [Compound 411, 1-(1-(6,7-Difluoro-1-oxo-1,2-dihydroisoquinolin-4-yl)ethyl)-3-(3-fluorophenyl)-1-methylurea]
EC50 (read-out: DE-19bDNA EC50; HepDE19 assay, inhibition of formation of relaxed circular DNA (rcDNA), bDNA quantitation): 37 nM

CC(c1c[nH]c(=O)c2cc(F)c(F)cc12)N(C)C(=O)Nc1ccc(F)c(Cl)c1 (single isomer, unassigned) [Compound 278, 3-(3-Chloro-4-fluorophenyl)-1-(1-(6,7-difluoro-1-oxo-1,2-dihydroisoquinolin-4-yl)ethyl)-1-methylurea]
EC50 [1]: 1000 nM

CC(C)CN(C(=O)Nc1ccc(F)c(Cl)c1)C(C)c1cn(CC(F)(F)F)c(=O)c2ccccc12 (racemic) [Compound 229, 3-(3-Chloro-4-fluorophenyl)-1-isobutyl-1-(1-(1-oxo-2-(2,2,2-trifluoroethyl)-1,2-dihydroisoquinolin-4-yl)ethyl)urea]
EC50 [1]: 70 nM

CCN(C(=O)Nc1ccc(F)c(Cl)c1)C(C)c1c[nH]c(=O)c2c(F)c(F)ccc12 (single isomer, unassigned) [Compound 468, 3-(3-Chloro-4-fluorophenyl)-1-(1-(7,8-difluoro-1-oxo-1,2-dihydroisoquinolin-4-yl)ethyl)-1-ethylurea]
EC50 [3]: 1100 nM

CC(c1c[nH]c(=O)c2ccc(F)cc12)N(CCS(N)(=O)=O)C(=O)Nc1ccc(F)c(Cl)c1 (single isomer, unassigned) [Compound 382, 2-(3-(3-Chloro-4-fluorophenyl)-1-(1-(6-fluoro-1-oxo-1,2-dihydroisoquinolin-4-yl)ethyl)ureido) ethane-1-sulfonamide]
EC50 [3]: 16 nM

CC(c1cn(C)c(=O)c2c(F)cccc12)N(C)C(=O)Nc1ccc(F)c(Cl)c1 (single isomer, unassigned) [Compound 359, 3-(3-Chloro-4-fluorophenyl)-1-(1-(8-fluoro-2-methyl-1-oxo-1,2-dihydroisoquinolin-4-yl)ethyl)-1-methylurea]
EC50 [3]: 23 nM
